According to patent publication US20250129103A1, “METHODS FOR TREATMENT OF CANCER” (Frontier Medicines Corporation, priority 2022, published 2025):

How the values were obtained:
[1] = target: KRAS G12C (GMPPNP-loaded) and cRAF (Ras-binding domain) interaction (Homo sapiens (Human), UniProt P01116, C118S/C51S/C80L/G12C); test: Inhibition of KRAS G12C and cRAF binding (AlphaScreen); details: KRAS G12C loaded with GMPPNP, cRaf RBD, 2 hours preincubation; read-out: Raf-1 RBD K-Ras IC50
Procedure, shortened: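 GMPPNP-loaded KRAS G12C in 25 mM Hepes pH 7.4, 150 mM NaCl, 5 mM MgCl2, 0.01% Triton X-100, 10 μM GMPPNP, 2% DMSO, preincubated with compound 2 h at room temperature. cRAF RBD plus AlphaScreen beads then added for 60-90 min; signal read at 570 nm.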

[2] = target: KRAS G12C (GMPPNP-loaded) and PI3Ka (Ras-binding domain) interaction (Homo sapiens (Human), UniProt P01116, C118S/C51S/C80L/G12C); test: Inhibition of KRAS G12C and PI3Ka binding (AlphaScreen); details: KRAS G12C loaded with GMPPNP, PI3Ka RBD, 2 hours preincubation; read-out: PI3K RBD K-Ras IC50
Sequence of KRAS G12C (GMPPNP-loaded) and PI3Ka (Ras-binding domain) interaction (P01116 other isoform, or with tags, fused parts or gaps G12C/C51S/C80L/C118S): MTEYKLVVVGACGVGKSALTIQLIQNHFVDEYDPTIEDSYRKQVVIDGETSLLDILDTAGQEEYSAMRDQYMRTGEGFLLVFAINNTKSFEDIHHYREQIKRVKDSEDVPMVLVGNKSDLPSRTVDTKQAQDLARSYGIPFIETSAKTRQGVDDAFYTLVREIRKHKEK
Experimental: The AlphaScreen technology was used to determine IC50S for compound inhibition of KRAS G12C (present as the Cys-light (C51S, C80L and C118S), truncated version comprising amino acids 1-169) and PI3Ka interaction. Compounds were diluted in 100% DMSO and each compound concentration was spotted at 200 nl/well onto low volume, white 384 well plates. The KRAS G12C contained a biotin-AviTag and the PI3Ka, as Ras-binding domain (amino acids 157-300, RBD), was His-tagged. KRAS G12C was preloaded with the GTP analogue Guanosine 5′-[β,γ-imido]triphosphate (GMPPNP). The KRAS G12C was diluted in 25 mM Hepes, pH 7.4, 150 mM NaCl, 5 mM MgCl2, 0.01% TritonX-100 and 10 μM GMPPNP and added at 10 ul/well to compound-spotted plates resulting in a DMSO concentration of 2%. Plates were incubated for 2 hours. A mixture of RBD and the AlphaScreen streptavidin donor and nickel chelate acceptor beads diluted in 25 mM Hepes, pH 7.4, 150 mM NaCl, 5 mM MgCl2, 0.01% TritonX-100 and 2% DMSO was then added at 10 ul/well and incubated for 60-90 minutes before the samples were read for emission at 570 nm after excitation of the donor beads at 680 nm. All incubations were performed at room temperature. The final top compound concentration was 50 μM with 1:3 titrations for 10-point dose response curves. Final assay conditions were 1.5 nM KRAS G12C, 100 nM RBD, 1.25 ug/ml of AlphaScreen donor beads and 10 μg/ml AlphaLISA acceptor beads. IC50s were determined using nonlinear regression fit of [inhibitor] vs. response (4 parameters). […]

Sequence of KRAS G12C (GMPPNP-loaded) and cRAF (Ras-binding domain) interaction (P01116 other isoform, or with tags, fused parts or gaps G12C/C51S/C80L/C118S): as above

| Compound | IC50 [1] | IC50 [2] |
| --- | --- | --- |
| Cc1cc(N)nc(C2Cc3nc(OC[C@@]45CCCN4C[C@H](F)C5)nc(N4CCN(C(=O)/C=C/c5nc(C(C)C)no5)[C@@H](CC#N)C4)c3CC2C)c1C(F)(F)F (mixture of isomers) [Example 66, 2-((2S)-4-(7-(6-amino-4-methyl-3-(trifluoromethyl)pyridin-2-yl)-2-(((2R,7aS)-2-fluorotetrahydro-1H-pyrrolizin-7a(5H)-yl)methoxy)-6-methyl-5,6,7,8-tetrahydroquinazolin-4-yl)-1-((E)-3-(3-isopropyl-1,2,4-oxadiazol-5-yl)acryloyl)piperazin-2-yl)acetonitrile] | 10 to 100 nM | 10 to 100 nM |
| CN1CCC1/C=C/C(=O)N1CCN(c2nc(OC[C@@]34CCCN3C[C@H](F)C4)nc3c(F)c(-c4cccc5cccc(Cl)c45)ncc23)C[C@@H]1CC#N (stereo partly shown) [Compound 51] | 10 to 100 nM | 10 to 100 nM |
| N#CC[C@H]1CN(c2nc(OC[C@@]34CCCN3C[C@H](F)C4)nc3c(F)c(-c4cccc(Cl)c4C4CC4)ncc23)CCN1C(=O)/C=C/CN1[C@@H]2CC[C@H]1COC2 [Compound 100, 2-((S)-1-((E)-4-((1R,5S)-3-oxa-8-azabicyclo[3.2.1]octan-8-yl)but-2-enoyl)-4-(7-(3-chloro-2-cyclopropylphenyl)-8-fluoro-2-(((2R,7aS)-2-fluorotetrahydro-1H-pyrrolizin-7a(5H)-yl)methoxy)pyrido[4,3-d]pyrimidin-4-yl)piperazin-2-yl)acetonitrile] | < 10 nM | < 10 nM |
| Cc1nccc(/C=C/C(=O)N2CCN(c3nc(OC[C@@]45CCCN4C[C@H](F)C5)nc4c(F)c(-c5cccc6ccc(F)c(F)c56)ncc34)C[C@@H]2CC#N)n1 [Compound 211] | < 10 nM | < 10 nM |
| CO[C@@H]1CCN(C/C=C/C(=O)N2CCN(c3nc(OC[C@@]45CCCN4C[C@H](F)C5)nc4c(F)c(-c5cccc6ccc(F)c(F)c56)ncc34)C[C@@H]2CC#N)C1 [Compound 216] | < 10 nM | < 10 nM |
| N#CC[C@H]1CN(c2nc(OC[C@@]34CCCN3C[C@H](F)C4)nc3c(F)c(-c4cccc5cccc(F)c45)ncc23)CCN1C(=O)/C=C/CN1C[C@@H]2C[C@H]1CO2 [Compound 219] | < 10 nM | < 10 nM |
| N#CC[C@H]1CN(c2nc(OC[C@@]34CCCN3C[C@H](F)C4)nc3c(F)c(-c4cccc5cccc(F)c45)ncc23)CCN1C(=O)/C=C/CN1C[C@H]2C[C@@H]1CO2 [Compound 220] | < 10 nM | < 10 nM |
| CCc1c(F)ccc2cccc(-c3ncc4c(N5CCN(C(=O)/C=C/c6ccnc(C)n6)[C@@H](CC#N)C5)nc(OC[C@@]56CCCN5C[C@H](F)C6)nc4c3F)c12 [Compound 227] | < 10 nM | < 10 nM |
| N#CC[C@H]1CN(c2nc(OC[C@@]34CCCN3C[C@H](F)C4)nc3c(F)c(-c4cccc(Cl)c4C4CC4)ncc23)CCN1C(=O)/C=C/CN1CCOCC1 [Compound 243] | < 10 nM | < 10 nM |
| N#CC[C@H]1CN(c2nc(OC[C@@]34CCCN3C[C@H](F)C4)nc3c(F)c(-c4cccc(Cl)c4C4CC4)ncc23)CCN1C(=O)/C=C/CN1CC[C@H](F)C1 [Compound 283] | < 10 nM | < 10 nM |
| CN(C/C=C/C(=O)N1CCN(c2nc(OCC34CCCN3CCC4)nc3c2CCN(c2cccc4cccc(Cl)c24)C3)C[C@@H]1CC#N)CC1COC1 [Compound 318] | < 10 nM | < 10 nM |
| Cc1noc(/C=C/C(=O)N2CCN(c3nc(OC[C@@]45CCCN4C[C@H](F)C5)nc4c3CCN(c3cccc5ccc(F)c(Cl)c35)C4)C[C@@H]2CC#N)n1 [Example 3, 2-((S)-4-(7-(8-chloro-7-fluoronaphthalen-1-yl)-2-(((2R,7aS)-2-fluorotetrahydro-1H-pyrrolizin-7a(5H)-yl)methoxy)-5,6,7,8-tetrahydropyrido[3,4-d]pyrimidin-4-yl)-1-((E)-3-(3-methyl-1,2,4-oxadiazol-5-yl)acryloyl)piperazin-2-yl)acetonitrile] | 10 to 100 nM | < 10 nM |
| N#CC[C@H]1CN(c2nc(OCC34CCCN3CCC4)nc3c2CCN(c2cccc4cccc(Cl)c24)C3)CCN1C(=O)/C=C/CN1CCOCC1 [Example 11, (S,E)-2-(4-(7-(8-chloronaphthalen-1-yl)-2-((hexahydro-1H-pyrrolizin-7a-yl)methoxy)-5,6,7,8-tetrahydropyrido[3,4-d]pyrimidin-4-yl)-1-(4-morpholinobut-2-enoyl)piperazin-2-yl)acetonitrile] | < 10 nM | 10 to 100 nM |
| CC(F)(F)c1noc(/C=C/C(=O)N2CCN(c3nc(OC[C@@]45CCCN4C[C@H](F)C5)nc4c3CCN(c3cccc5cccc(Cl)c35)C4)C[C@@H]2CC#N)n1 [Example 12, 2-((S)-4-(7-(8-chloronaphthalen-1-yl)-2-(((2R,7aS)-2-fluorohexahydro-1H-pyrrolizin-7a-yl)methoxy)-5,6,7,8-tetrahydropyrido[3,4-d]pyrimidin-4-yl)-1-((E)-3-(3-(1,1-difluoroethyl)-1,2,4-oxadiazol-5-yl)acryloyl)piperazin-2-yl)acetonitrile] | < 10 nM | < 10 nM |
| CC(F)(F)c1noc(/C=C/C(=O)N2CCN(c3nc(OCC45CCCN4CCC5)nc4c(F)c(-c5cccc6cccc(Cl)c56)ncc34)C[C@@H]2CC#N)n1 [Example 13, (S,E)-2-(4-(7-(8-chloronaphthalen-1-yl)-8-fluoro-2-((tetrahydro-1H-pyrrolizin-7a(5H)-yl)methoxy)pyrido[4,3-d]pyrimidin-4-yl)-1-(3-(3-(1,1-difluoroethyl)-1,2,4-oxadiazol-5-yl)acryloyl)piperazin-2-yl)acetonitrile] | 10 to 100 nM | 10 to 100 nM |

More lines, now with the values ahead:

| IC50 [1] | IC50 [2] | Compound |
| --- | --- | --- |
| < 10 nM | < 10 nM | N#CC[C@H]1CN(c2nc(OC[C@@]34CCCN3C[C@H](F)C4)nc3c(F)c(-c4cccc5cccc(Cl)c45)ncc23)CCN1C(=O)/C=C/CN1CCSCC1 [Compound 97, 2-((S)-4-(7-(8-chloronaphthalen-1-yl)-8-fluoro-2-(((2R,7aS)-2-fluorohexahydro-1H-pyrrolizin-7a-yl)methoxy)pyrido[4,3-d]pyrimidin-4-yl)-1-((E)-4-thiomorpholinobut-2-enoyl)piperazin-2-yl)acetonitrile] |
| < 10 nM | < 10 nM | Cc1nccc(/C=C/C(=O)N2CCN(c3nc(OC[C@@]45CCCN4C[C@H](F)C5)nc4c(F)c(-c5cccc(Cl)c5C5CC5)ncc34)C[C@@H]2CC#N)n1 [Compound 104, 2-((S)-4-(7-(3-chloro-2-cyclopropylphenyl)-8-fluoro-2-(((2R,7aS)-2-fluorotetrahydro-1H-pyrrolizin-7a(5H)-yl)methoxy)pyrido[4,3-d]pyrimidin-4-yl)-1-((E)-3-(2-methylpyrimidin-4-yl)acryloyl)piperazin-2-yl)acetonitrile] |
| < 10 nM | < 10 nM | CCc1nccc(/C=C/C(=O)N2CCN(c3nc(OC[C@@]45CCCN4C[C@H](F)C5)nc4c(F)c(-c5cccc6cccc(Cl)c56)ncc34)C[C@@H]2CC#N)n1 [Compound 150] |
| < 10 nM | < 10 nM | N#CC[C@H]1CN(c2nc(OCC34CCCN3CCC4)nc3c2CCN(c2cccc4cccc(Cl)c24)C3)CCN1C(=O)/C=C/CN1CCC(F)(F)CC1 [Compound 159] |
| < 10 nM | < 10 nM | CC1(C)CN(C/C=C/C(=O)N2CCN(c3nc(OCC45CCCN4CCC5)nc4c3CCN(c3cccc5cccc(Cl)c35)C4)C[C@@H]2CC#N)CCO1 [Compound 165] |
| < 10 nM | < 10 nM | N#CC[C@H]1CN(c2nc(OCC34CCCN3CCC4)nc3c2CCN(c2cccc4cccc(Cl)c24)C3)CCN1C(=O)/C=C/CN1CCCCC1 [Compound 170] |
| < 10 nM | < 10 nM | N#CC[C@H]1CN(c2nc(OC[C@@]34CCCN3C[C@H](F)C4)nc3c(F)c(-c4cccc5cccc(Cl)c45)ncc23)CCN1C(=O)/C=C/CN1C[C@@H]2C[C@H]1CO2 [Compound 180] |
| < 10 nM | < 10 nM | N#CC[C@H]1CN(c2nc(OC[C@@]34CCCN3C[C@H](F)C4)nc3c(F)c(-c4cccc5cccc(Cl)c45)ncc23)CCN1C(=O)/C=C/CN1C[C@H]2C[C@@H]1CO2 [Compound 181] |
